According to patent US20220251163A1 (Sinopep-Allsino Biopharmaceutical Co., Ltd., priority 2019, published 2022):
*1 amine or outer side, *2 acyl side, *3 side chain or, on linkers, in order; H or OH if unused. Where a SMILES comes first, the peptide text is derived from it. Side-chain parts run from the residue outwards. [ ]: non-standard residue; d: D form. The star is where a group is joined. C18 diacid = O=C(O)CCCCCCCCCCCCCCCCC(=O)*; γGlu = O=C(O)[C@H](CCC(=O)[*:2])N[*:1]; AEEA = NCCOCCOCC(=O)O; Aib = CC(C)(N)C(=O)O

Key:
[1] = Effect on random weight of ob/ob mice after single subcutaneous injection; assay type: in vivo; conditions: 100 μg/kg single s.c., X ± s, n = 7
Protocol: The mice in each group received random blood glucose value measurement before (0 h) administration and 2, 4, 6, 10 and 24 h after administration, and then the time for measuring the random blood glucose was adjusted and prolonged to 34, 48, 58 or 72 h after administration according to the blood glucose condition of the mice in each group. Meanwhile, the random weight of the mice in each group before (0 h) administration and 24 h after administration was weighed, and then the random weight of the mice corresponding to the random blood glucose measurement condition 48 or 72 h after administration was weighed.

mGLP-1R = target: T1, mGLP-1R (Mus musculus, UniProt O35659); test: GLP-1R agonist activity, cAMP in transfected HEK293 cells; assay type: cell-based
T1 construct: expressed in transfected cells; host or cells: HEK293
T1 sequence (O35659 22-463): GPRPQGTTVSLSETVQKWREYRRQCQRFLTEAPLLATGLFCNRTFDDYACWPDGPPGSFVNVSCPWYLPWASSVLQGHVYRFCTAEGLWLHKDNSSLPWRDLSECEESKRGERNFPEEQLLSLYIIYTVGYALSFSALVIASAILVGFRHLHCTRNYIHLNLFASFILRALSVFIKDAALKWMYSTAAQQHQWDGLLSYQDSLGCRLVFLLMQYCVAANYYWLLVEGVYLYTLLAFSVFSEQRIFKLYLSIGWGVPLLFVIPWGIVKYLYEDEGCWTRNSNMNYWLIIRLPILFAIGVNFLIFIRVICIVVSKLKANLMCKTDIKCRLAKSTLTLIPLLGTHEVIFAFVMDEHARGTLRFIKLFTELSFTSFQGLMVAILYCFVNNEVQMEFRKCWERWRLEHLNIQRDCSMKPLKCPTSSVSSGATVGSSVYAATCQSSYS

ob/ob mice = test: Blood glucose reducing experiment, single subcutaneous injection in ob/ob mice; assay type: in vivo; conditions: 100 μg/kg single s.c.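 Also: random blood glucose read at each time point, decrease rate given as percentage fall versus the model control group.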
Protocol: The mice in each group received random blood glucose value measurement before (0 h) administration and 2, 4, 6, 10 and 24 h after administration, and then the time for measuring the random blood glucose was adjusted and prolonged to 34, 48, 58 or 72 h after administration according to the blood glucose condition of the mice in each group. Meanwhile, the random weight of the mice in each group before (0 h) administration and 24 h after administration was weighed, and then the random weight of the mice corresponding to the random blood glucose measurement condition 48 or 72 h after administration was weighed. The blood glucose decrease rate, the blood glucose curve area (AUC0-24 h Glu) within 24 h after administration and the decrease rate were calculated according to the following formula.
Blood glucose decrease rate=(blood glucose in the model control group−blood glucose in the administration group)/blood glucose in the model control group×100%
BG0, BG2, BG4, BG6, BG10 and BG24 represented the blood glucose values before administration (0 h) and 2, 4, 6, 10 and 24 h after administration respectively.
AUC0-24 h Glu(mmol/Lh·r) decrease rate=(model control group AUC0-24 h Glu−administration group AUC0-24 h Glu/model control group AUC0-24 h Glu×100%
Experiments were carried out twice, at an interval of 8-10 days.

mGIPR = target: T2, mGIPR (Mus musculus, UniProt Q0P543); test: GIPR agonist activity, cAMP in transfected HEK293 cells; assay type: cell-based
T2 construct: expressed in transfected cells; host or cells: HEK293
T2 sequence (Q0P543 19-460): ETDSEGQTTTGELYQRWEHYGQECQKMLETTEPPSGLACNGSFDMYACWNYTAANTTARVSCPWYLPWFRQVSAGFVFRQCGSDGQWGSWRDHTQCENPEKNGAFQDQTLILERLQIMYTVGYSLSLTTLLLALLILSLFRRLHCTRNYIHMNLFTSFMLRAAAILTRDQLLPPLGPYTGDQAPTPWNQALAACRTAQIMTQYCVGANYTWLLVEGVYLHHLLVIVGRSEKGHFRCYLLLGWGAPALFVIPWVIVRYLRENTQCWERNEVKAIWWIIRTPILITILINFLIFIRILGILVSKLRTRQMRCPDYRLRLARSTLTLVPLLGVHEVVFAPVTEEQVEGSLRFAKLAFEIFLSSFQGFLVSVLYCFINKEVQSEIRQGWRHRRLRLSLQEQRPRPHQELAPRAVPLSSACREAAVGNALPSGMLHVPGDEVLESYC
Protocol: HEK293 cells were co-transfected with cDNA encoding GLP-1R or GIPR. In a test for determining the compound, the cells were inoculated in a 96-well plate 2 h in advance, the polypeptide compound was dissolved with DMSO, and diluted to different multiples with a culture medium containing 0.1% bovine serum albumin and added to the co-transfected cells.

Which results are given for CC[C@H](C)[C@H](NC(=O)[C@H](CCCCN)NC(=O)[C@H](CC(=O)O)NC(=O)[C@H](CC(C)C)NC(=O)[C@H](C)NC(=O)[C@@H](NC(=O)[C@H](CO)NC(=O)[C@H](Cc1ccc(O)cc1)NC(=O)[C@H](CC(=O)O)NC(=O)[C@H](CO)NC(=O)[C@@H](NC(=O)[C@H](Cc1ccccc1)NC(=O)[C@@H](NC(=O)CNC(=O)[C@H](CCC(=O)O)NC(=O)C(C)(C)NC(=O)[C@@H](N)Cc1ccc(O)cc1)[C@@H](C)O)[C@@H](C)O)[C@@H](C)CC)C(=O)N[C@@H](C)C(=O)N[C@@H](CCC(N)=O)C(=O)N[C@@H](CCCCNC(=O)COCCOCCNC(=O)COCCOCCNC(=O)CC[C@H](NC(=O)CCCCCCCCCCCCCCCCC(=O)O)C(=O)O)C(=O)N[C@@H](C)C(=O)N[C@@H](Cc1ccccc1)C(=O)N[C@H](C(=O)N[C@@H](CCC(N)=O)C(=O)N[C@@H](Cc1c[nH]c2ccccc12)C(=O)N[C@@H](CC(C)C)C(=O)N[C@H](C(=O)N[C@@H](C)C(=O)NCC(=O)NCC(=O)N1CCC[C@H]1C(=O)N[C@@H](CO)C(=O)N[C@@H](CO)C(=O)NCC(=O)N[C@@H](C)C(=O)N1CCC[C@H]1C(=O)N1CCC[C@H]1C(=O)N1CCC[C@H]1C(=O)N[C@@H](CO)C(N)=O)[C@@H](C)CC)C(C)C [ID NO: 6] (H-Y[Aib]EGTFTSDYSIALDKIAQK([AEEA-AEEA-γGlu-C18 diacid])AFVQWLIAGGPSSGAPPPS-NH2)?
Changes of random body weight at different time after administration, 0 h ([1]; 0 h): 0.0 ± 0.0 g; Random body weight at different time after administration, 0 h ([1]; 0 h): 43.5 ± 0.6 g; Changes of random body weight at different time after administration, 24 h ([1]; 24 h): -1.5 ± 0.2 g; Random body weight at different time after administration, 24 h ([1]; 24 h): 42.1 ± 0.7 g; Changes of random body weight at different time after administration, 48 h ([1]; 48 h): -0.8 ± 0.1 g; Random body weight at different time after administration, 48 h ([1]; 48 h): 42.7 ± 0.7 g; EC50 (mGLP-1R): 2.58 pM; Blood glucose at different time after administration, 0 h (ob/ob mice; 0 h (before administration), X ± s, n = 7): 20.64 ± 0.77 mmol/L; Decrease rate of blood glucose at different time after administration, 2 h (ob/ob mice; 2 h): 52.7%; Blood glucose at different time after administration, 2 h (ob/ob mice; 2 h, X ± s, n = 7): 9.76 ± 0.83 mmol/L; Decrease rate of blood glucose at different time after administration, 4 h (ob/ob mice; 4 h): 56.6%; Blood glucose at different time after administration, 4 h (ob/ob mice; 4 h, X ± s, n = 7): 8.96 ± 0.77 mmol/L; Decrease rate of blood glucose at different time after administration, 6 h (ob/ob mice; 6 h): 58.6%; Blood glucose at different time after administration, 6 h (ob/ob mice; 6 h, X ± s, n = 7): 8.55 ± 0.96 mmol/L; Decrease rate of blood glucose at different time after administration, 10 h (ob/ob mice; 10 h): 51.9%; Blood glucose at different time after administration, 10 h (ob/ob mice; 10 h, X ± s, n = 7): 9.93 ± 0.76 mmol/L; Decrease rate of blood glucose at different time after administration, 24 h (ob/ob mice; 24 h): 49.0%; Blood glucose at different time after administration, 24 h (ob/ob mice; 24 h, X ± s, n = 7): 10.53 ± 1.21 mmol/L; Decrease rate of blood glucose at different time after administration, 34 h (ob/ob mice; 34 h): 36.4%; Blood glucose at different time after administration, 34 h (ob/ob mice; 34 h, X ± s, n = 7): 13.13 ± 2.21 mmol/L; Decrease rate of blood glucose at different time after administration, 48 h (ob/ob mice; 48 h): 13.8%; AUC0-24 h Glu (ob/ob mice; blood glucose curve area within 24 h, X ± s, n = 7): 246.81 ± 18.95 mmol·h/L; AUC0-24 h Glu Decrease rate (ob/ob mice; versus model control group): 51.7%; EC50 (mGIPR): 9.29 pM
